Results as given in ChEMBL document CHEMBL1817669, “Design and pharmacological evaluation of PF-4840154, a non-electrophilic reference agonist of the TrpA1 channel” (Bioorg Med Chem Lett, 2011).
Values after ≈ are worked out from the molar mass of the structure shown. Active and inactive are the calls of the source. The calls are words filed in the database; no cut-off is given here.

Legend:
[1] = biological target: Transient receptor potential cation channel subfamily A member 1 (Rattus norvegicus, UniProt Q6RI86); assay: Agonist activity at rat TRPA1 channel expressed in HEK293 cells assessed as calcium influx measured at every 1 second for 60 seconds by fluorescence analysis; format: functional, cell-based
[2] = biological target: Transient receptor potential cation channel subfamily A member 1 (Homo sapiens, UniProt O75762); assay: Agonist activity at human TRPA1 channel expressed in HEK293 cells assessed as calcium influx measured at every 1 second for 60 seconds by fluorescence analysis; format: functional, cell-based
[3] = Aqueous solubility of the compound at pH 7.4; format: physicochemical
[4] = Inhibition of sigma receptor at 1.1 uM
[5] = biological target: D(3) dopamine receptor (Homo sapiens) (UniProt P35462); assay: Inhibition of dopamine D3 receptor at 1.9 uM
[6] = Inhibition of chloride channel at 1.5 uM
[7] = biological target: Sodium-dependent dopamine transporter (Homo sapiens) (UniProt Q01959); assay: Inhibition of dopamine transporter at 1.6 uM
[8] = biological target: Sodium-dependent noradrenaline transporter (Homo sapiens) (UniProt P23975); assay: Inhibition of noradrenaline transporter at 2.8 uM
[9] = biological target: Transient receptor potential cation channel subfamily V member 1 (Homo sapiens) (UniProt Q8NER1); assay: Agonist activity at human TRPV1 receptor; format: functional
[10] = biological target: Transient receptor potential cation channel subfamily V member 1 (Homo sapiens) (UniProt Q8NER1); assay: Antagonist activity at human TRPV1 receptor; format: functional
[11] = biological target: Transient receptor potential cation channel subfamily V member 4 (Homo sapiens) (UniProt Q9HBA0); assay: Agonist activity at human TRPV4 receptor; format: functional
[12] = biological target: Transient receptor potential cation channel subfamily V member 4 (Homo sapiens) (UniProt Q9HBA0); assay: Antagonist activity at human TRPV4 receptor; format: functional
[13] = biological target: Transient receptor potential cation channel subfamily M member 8 (Homo sapiens) (UniProt Q7Z2W7); assay: Agonist activity at human TRPM8 receptor; format: functional
[14] = biological target: Transient receptor potential cation channel subfamily M member 8 (Homo sapiens) (UniProt Q7Z2W7); assay: Antagonist activity at human TRPM8 receptor; format: functional
[15] = species: Mus musculus; assay: Antinociceptive activity against formalin-induced inflammatory pain in Trpa1-positive CD1 mouse assessed as increase in time spent in paw licking at 30 nmol, intraplantar measured every 5 mins for 60 mins; format: functional, organism-based
[16] = species: Mus musculus; assay: Antinociceptive activity against formalin-induced inflammatory pain in Trpa1-knock out CD1 mouse assessed as increase in time spent in paw licking at 30 nmol, intraplantar measured every 5 mins for 60 mins; format: functional, organism-based
[17] = system: Mus musculus; assay: Antinociceptive activity against formalin-induced inflammatory pain in Trpa1-positive CD1 mouse assessed as increase in time spent in paw licking at 30 nmol, intraplantar measured every 5 mins for 60 mins in pretreated with 100 mg/kg Trpa1 antagonist HC003031; format: functional, organism-based; design: dose 100 mg/kg
[18] = biological target: Transient receptor potential cation channel subfamily A member 1 (Rattus norvegicus) (UniProt Q6RI86); assay: Agonist activity at rat TRPA1 channel expressed in HEK293 cells assessed as calcium influx at 10 uM measured at every 1 second for 60 seconds by fluorescence analysis; format: functional, cell-based
Sequence of Transient receptor potential cation channel subfamily A member 1 (Rattus norvegicus) (Q6RI86 whole entry): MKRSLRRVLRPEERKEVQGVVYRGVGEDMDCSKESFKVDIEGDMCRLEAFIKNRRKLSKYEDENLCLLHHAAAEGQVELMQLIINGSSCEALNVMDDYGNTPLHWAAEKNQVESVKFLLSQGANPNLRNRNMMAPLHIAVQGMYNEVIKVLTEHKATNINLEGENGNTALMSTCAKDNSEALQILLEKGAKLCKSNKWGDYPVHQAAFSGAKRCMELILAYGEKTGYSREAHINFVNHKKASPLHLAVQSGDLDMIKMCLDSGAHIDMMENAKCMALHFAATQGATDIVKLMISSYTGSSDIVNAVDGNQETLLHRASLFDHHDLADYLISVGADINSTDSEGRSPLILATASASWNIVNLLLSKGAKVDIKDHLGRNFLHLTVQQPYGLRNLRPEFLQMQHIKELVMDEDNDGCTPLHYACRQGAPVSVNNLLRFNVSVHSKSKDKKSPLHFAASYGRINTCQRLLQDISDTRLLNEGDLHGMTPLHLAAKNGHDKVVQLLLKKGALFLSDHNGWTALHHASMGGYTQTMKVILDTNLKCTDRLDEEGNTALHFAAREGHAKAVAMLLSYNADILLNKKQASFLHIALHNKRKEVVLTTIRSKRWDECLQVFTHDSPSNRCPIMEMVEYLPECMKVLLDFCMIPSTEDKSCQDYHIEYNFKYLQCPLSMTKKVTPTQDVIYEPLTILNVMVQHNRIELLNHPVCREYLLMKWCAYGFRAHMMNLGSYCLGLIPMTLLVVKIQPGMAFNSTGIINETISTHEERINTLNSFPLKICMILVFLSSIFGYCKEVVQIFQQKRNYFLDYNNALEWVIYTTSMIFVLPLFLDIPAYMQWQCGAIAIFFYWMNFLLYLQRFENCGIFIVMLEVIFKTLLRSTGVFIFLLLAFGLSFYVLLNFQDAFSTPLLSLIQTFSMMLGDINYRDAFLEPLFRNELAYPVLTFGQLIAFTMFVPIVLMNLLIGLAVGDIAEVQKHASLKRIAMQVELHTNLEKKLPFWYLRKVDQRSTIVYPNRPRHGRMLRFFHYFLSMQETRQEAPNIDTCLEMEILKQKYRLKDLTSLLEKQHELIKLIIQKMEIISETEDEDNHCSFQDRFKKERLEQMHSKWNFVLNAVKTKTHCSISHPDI

Sequence of Transient receptor potential cation channel subfamily A member 1 (Homo sapiens, UniProt O75762) (O75762 whole entry): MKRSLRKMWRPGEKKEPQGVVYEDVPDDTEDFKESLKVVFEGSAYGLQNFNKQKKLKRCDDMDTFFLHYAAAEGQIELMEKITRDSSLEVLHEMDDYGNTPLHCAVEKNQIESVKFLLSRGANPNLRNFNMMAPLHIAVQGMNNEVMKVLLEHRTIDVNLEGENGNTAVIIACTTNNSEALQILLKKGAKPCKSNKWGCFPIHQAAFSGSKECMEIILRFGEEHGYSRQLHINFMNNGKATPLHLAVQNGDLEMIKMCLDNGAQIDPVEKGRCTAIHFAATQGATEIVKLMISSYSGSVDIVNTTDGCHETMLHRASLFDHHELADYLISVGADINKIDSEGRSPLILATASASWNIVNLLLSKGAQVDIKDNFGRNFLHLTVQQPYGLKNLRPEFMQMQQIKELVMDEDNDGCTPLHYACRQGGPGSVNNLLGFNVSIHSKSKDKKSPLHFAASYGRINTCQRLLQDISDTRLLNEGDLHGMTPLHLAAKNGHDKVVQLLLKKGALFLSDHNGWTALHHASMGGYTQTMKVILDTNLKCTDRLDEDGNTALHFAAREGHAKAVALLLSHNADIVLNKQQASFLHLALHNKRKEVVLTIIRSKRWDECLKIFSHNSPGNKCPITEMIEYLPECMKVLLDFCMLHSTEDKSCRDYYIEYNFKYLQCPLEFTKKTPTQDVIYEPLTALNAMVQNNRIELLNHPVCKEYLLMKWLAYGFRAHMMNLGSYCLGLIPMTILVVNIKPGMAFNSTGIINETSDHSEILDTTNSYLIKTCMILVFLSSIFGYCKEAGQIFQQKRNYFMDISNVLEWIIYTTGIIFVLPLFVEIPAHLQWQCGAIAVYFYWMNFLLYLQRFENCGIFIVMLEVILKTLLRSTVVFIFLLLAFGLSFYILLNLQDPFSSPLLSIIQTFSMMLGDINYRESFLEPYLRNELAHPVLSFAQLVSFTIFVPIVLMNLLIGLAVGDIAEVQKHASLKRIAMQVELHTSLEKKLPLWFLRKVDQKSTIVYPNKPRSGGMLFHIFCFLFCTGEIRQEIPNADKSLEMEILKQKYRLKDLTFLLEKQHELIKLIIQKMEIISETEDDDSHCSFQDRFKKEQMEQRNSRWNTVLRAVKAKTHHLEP
Sequence of Transient receptor potential cation channel subfamily A member 1 (Rattus norvegicus, UniProt Q6RI86) (Q6RI86 whole entry): as the sequence (Q6RI86 whole entry) above
Sequence of Transient receptor potential cation channel subfamily M member 8 (Homo sapiens) (Q7Z2W7 whole entry, looked up): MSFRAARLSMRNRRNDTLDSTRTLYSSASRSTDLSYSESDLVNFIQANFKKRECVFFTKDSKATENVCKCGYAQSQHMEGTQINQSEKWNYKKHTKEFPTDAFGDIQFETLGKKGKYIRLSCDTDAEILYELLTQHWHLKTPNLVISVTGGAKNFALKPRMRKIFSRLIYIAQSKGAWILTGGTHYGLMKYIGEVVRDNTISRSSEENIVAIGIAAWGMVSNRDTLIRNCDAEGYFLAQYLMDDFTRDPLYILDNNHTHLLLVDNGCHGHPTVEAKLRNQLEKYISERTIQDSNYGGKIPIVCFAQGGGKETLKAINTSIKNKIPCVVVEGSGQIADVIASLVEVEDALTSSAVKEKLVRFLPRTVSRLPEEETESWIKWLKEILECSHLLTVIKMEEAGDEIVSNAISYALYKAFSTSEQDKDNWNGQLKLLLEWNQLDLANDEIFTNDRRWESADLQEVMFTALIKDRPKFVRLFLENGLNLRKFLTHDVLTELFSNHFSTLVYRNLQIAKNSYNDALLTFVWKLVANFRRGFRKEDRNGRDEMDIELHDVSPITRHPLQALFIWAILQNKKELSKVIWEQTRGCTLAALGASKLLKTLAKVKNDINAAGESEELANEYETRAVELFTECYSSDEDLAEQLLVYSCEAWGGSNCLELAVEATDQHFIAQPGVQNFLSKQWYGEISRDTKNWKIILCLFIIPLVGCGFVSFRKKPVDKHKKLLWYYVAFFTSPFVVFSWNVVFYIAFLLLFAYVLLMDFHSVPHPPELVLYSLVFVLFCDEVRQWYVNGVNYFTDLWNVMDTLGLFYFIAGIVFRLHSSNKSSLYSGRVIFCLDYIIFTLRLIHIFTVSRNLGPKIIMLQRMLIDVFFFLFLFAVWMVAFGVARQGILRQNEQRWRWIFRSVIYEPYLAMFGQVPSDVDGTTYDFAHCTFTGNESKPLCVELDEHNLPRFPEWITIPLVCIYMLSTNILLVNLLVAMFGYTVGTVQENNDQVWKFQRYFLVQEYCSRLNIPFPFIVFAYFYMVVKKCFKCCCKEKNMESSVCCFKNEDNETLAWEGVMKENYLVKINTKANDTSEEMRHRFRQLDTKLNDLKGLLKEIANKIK
Sequence of Transient receptor potential cation channel subfamily V member 1 (Homo sapiens) (Q8NER1 whole entry): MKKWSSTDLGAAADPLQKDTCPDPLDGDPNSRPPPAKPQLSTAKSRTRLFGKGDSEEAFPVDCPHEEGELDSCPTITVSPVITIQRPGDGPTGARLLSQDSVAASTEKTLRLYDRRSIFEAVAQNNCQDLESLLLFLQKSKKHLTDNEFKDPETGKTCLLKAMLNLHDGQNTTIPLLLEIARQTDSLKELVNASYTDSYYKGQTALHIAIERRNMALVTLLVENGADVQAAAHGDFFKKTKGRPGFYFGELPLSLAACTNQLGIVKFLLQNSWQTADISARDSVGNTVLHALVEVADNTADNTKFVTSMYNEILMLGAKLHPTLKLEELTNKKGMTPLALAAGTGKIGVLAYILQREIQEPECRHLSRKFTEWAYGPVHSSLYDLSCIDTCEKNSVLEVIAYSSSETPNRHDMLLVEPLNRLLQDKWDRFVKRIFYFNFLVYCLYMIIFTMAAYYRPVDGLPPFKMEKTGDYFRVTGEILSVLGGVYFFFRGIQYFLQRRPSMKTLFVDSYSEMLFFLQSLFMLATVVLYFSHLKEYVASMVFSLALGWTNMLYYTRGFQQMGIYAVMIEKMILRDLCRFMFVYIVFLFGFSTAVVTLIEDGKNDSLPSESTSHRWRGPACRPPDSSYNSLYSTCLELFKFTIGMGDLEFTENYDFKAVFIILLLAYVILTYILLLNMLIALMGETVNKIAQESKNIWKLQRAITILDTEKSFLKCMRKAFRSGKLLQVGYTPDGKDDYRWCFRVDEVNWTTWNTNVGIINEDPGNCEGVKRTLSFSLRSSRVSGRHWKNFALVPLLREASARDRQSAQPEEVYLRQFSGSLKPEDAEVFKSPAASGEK
Sequence of Transient receptor potential cation channel subfamily V member 4 (Homo sapiens) (Q9HBA0 whole entry): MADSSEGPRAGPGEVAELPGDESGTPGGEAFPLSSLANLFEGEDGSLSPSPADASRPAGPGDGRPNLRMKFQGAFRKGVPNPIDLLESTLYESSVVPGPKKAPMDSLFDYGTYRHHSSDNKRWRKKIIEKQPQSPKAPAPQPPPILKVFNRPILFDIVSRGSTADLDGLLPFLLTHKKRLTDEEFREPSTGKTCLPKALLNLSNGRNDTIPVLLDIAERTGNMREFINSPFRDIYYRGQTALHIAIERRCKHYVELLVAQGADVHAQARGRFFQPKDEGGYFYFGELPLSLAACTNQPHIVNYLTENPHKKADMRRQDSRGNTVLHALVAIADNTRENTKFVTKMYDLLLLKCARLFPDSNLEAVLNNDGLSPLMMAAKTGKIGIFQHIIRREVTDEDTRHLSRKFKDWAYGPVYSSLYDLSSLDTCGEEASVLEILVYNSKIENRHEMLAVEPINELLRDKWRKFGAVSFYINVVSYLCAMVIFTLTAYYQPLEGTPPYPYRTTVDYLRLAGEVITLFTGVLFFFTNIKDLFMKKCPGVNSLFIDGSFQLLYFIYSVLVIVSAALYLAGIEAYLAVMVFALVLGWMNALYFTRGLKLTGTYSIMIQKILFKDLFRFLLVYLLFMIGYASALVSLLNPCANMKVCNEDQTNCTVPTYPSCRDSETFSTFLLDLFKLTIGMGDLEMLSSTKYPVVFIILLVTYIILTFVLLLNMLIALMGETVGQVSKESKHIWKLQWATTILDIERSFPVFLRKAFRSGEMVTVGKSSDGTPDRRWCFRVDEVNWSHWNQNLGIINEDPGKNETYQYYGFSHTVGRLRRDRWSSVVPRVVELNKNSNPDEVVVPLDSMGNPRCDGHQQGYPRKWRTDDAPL

Compound: CC(C)CNc1nc(N2CCN(CC3CCCOC3)CC2)ncc1C(=O)NCc1ccccc1 (stereo not given)
- EC50 [1]: 97 nM
- EC50 ([2]; read-out: EC50): 23 nM
- solubility [3]: 6.4 µM (≈ 2.99 µg/mL)
- inhibition [4]: < 10%
- inhibition [5]: < 10%
- inhibition [6]: < 10%
- inhibition [7]: < 10%
- inhibition [8]: < 10%
- Activity [9]: inactive
- Activity [10]: inactive
- Activity [11]: inactive
- Activity [12]: inactive
- Activity [13]: inactive
- Activity [14]: inactive
- Activity [15]: Active
- Activity [16]: inactive
- Activity [17]: inactive

Compound: CC(C)CNc1nc(N2CCN(Cc3ccccc3)CC2)ncc1C(=O)NCc1ccccn1
- EC50 [1]: 2250 nM
- EC50 ([2]; hek293): Not Active

Compound: O=C(NCc1ccccc1)c1cnc(N2CCN(Cc3ccccc3)CC2)nc1NC1CC1
- EC50 [1]: 468 nM
- EC50 ([2]; hek293): Not Active

Compound: CC(C)CNc1nc(N2CCN(Cc3ccccc3)CC2)ncc1C(=O)NCc1ccccc1
- EC50 [1]: 175 nM
- EC50 ([2]; read-out: EC50): 79 nM

Compound: O=C(NCc1ccccc1)c1cnc(N2CCN(C(=O)c3c(F)cccc3F)CC2)nc1NC1CC1
- EC50 [1]: 186 nM
- EC50 ([2]; read-out: EC50): 27 nM

Compound: COCCNC(=O)c1cnc(N2CCN(Cc3ccccc3)CC2)nc1NCC(C)C
- EC50 [1]: 581 nM
- EC50 ([2]; hek293): Not Active

Compound: CCCCN1CCN(c2ncc(C(=O)NCc3ccccc3)c(NC3CC3)n2)CC1
- activation [18]: 30%
- EC50 ([2]; hek293): Not Active

Compound: O=C(NCc1ccccc1)c1cnc(N2CCN(C(=O)c3ccccc3)CC2)nc1NC1CC1
- EC50 [1]: 5600 nM
- EC50 ([2]; hek293): Not Active

Compound: O=C(NCc1ccccc1)c1cnc(N2CCN(CC3CCCOC3)CC2)nc1NC1CC1 (stereo not given)
- EC50 [1]: 848 nM
- EC50 ([2]; read-out: EC50): 109 nM

Compound: CC(C)CNc1nc(N2CCN(Cc3ccccc3)CC2)ncc1C(=O)NCc1cccnc1
- EC50 [1]: 215 nM
- EC50 ([2]; read-out: EC50): 49 nM
